Data on two compounds can be found in patent US9468607B2, “Ligand directed toroidal nanoparticles for therapy and diagnostic imaging” (WASHINGTON UNIVERSITY, priority 2007, dated 2016).

Data set [1] can be described thus: Drug loading efficiency by reverse phase HPLC. The class given is physicochemical. The note with it: drug encapsulated in nanoparticles. Here is the method: Amphiphilic polymer (˜30 mg) was taken up in 3 mL of anhydrous chloroform (Aldrich, Inc.) and gently vortexed for 2 min. The organic phase (with or without the presence of any contrast agent, ˜5 mL of chloroform layer) was dried (anhydrous Na2SO4). Excess of anhydrous chloroform (35 mL) was added to the organic phase and was taken in a 50 mL, long necked test tube. Doxorubicin (0.27 mg/mL) was dissolved in 5 mL of nanopure water (0.2 μM) and was injected followed by gentle vortexing for few minutes. The chloroform was then slowly evaporated under reduced pressure at 45° C. for […], maintaining the pressure at 420-440 mbar. To this, an additional 5 mL of nanopure water (0.2 μM) was injected. The dispersion was sonicated in a Branson ultra sonic bath for ½ h (until a clear dispersion formed) maintaining the bath temperature at 50° C.
Amphiphilic polymer (˜27 mg) was taken up in 3 mL of anhydrous chloroform (Aldrich, Inc.) and gently vortexed for 2 min. The organic phase (with or without the presence of any contrast agent) was dried (anhydrous Na2SO4). […]
Doxorubicin was analyzed by reversed-phase HPLC system with Waters 600S as a controller, Waters 626 pump to deliver mobile phase, Waters 717 auto sampler for injection and Waters 474 scanning fluorescence detector at wavelength ex 470 nm/em 555 nm for detection. […]

The conditions of data set [2]: for Drug release over 3 days: from nanoparticles, dialysis against 0.9% NaCl, 0.2 mg/ml human serum albumin, 37° C.; for % Drug remaining: dialysis at 37° C.

Like-named read-outs stand apart in the source and are kept apart here.

For `COc1cccc2c1C(=O)c1c(O)c3c(c(O)c1C2=O)C[C@@](O)(C(=O)CO)C[C@@H]3O[C@H]1C[C@H](N)[C@H](O)[C@H](C)O1` [Doxorubicin], the loading efficiency in data set [1] is given as 98+/−0.1%. In data set [2], the “Drug release over 3 days” value is 12+/−0.6%.
For the compound `CC[C@@]1(O)C(=O)OCc2c1cc1n(c2=O)Cc2cc3ccccc3nc2-1` [Camptothecin], in data set [1], the loading efficiency is 99+/−0.1%. In addition, the “% Drug remaining” value in data set [2] (Day 1, in nanoparticles) came out at 93.48%; in data set [2] (Day 2, in nanoparticles), 87.57%; in data set [2] (Day 3, in nanoparticles) it was 83.38%. In data set [2], the “Drug release over 3 days” value is on record as 20+/−3.5%.
